One test deals with Phosphorylated eIF4E. The test is described as follows: peIF4E signaling cellular assay (CisBio HTRF). Type of test: cell-based. The following applies: 2 hrs incubation at 37° C. As to the method: Phosphorylated eIF4E is assayed using the CisBio peIF4E HTRF® assay kit (CisBio, catalogue No. 64EF4PEG). Cells are plated in 96-well tissue-culture treated plate in appropriate growth medium (90 μL). Compounds (10×) are diluted using 3-fold serial dilutions in cell culture medium and added to cells. Plates are incubated for 2 hrs at 37° C. The cell supernatant is carefully removed either by aspirating supernatant or by flicking the plate. Immediately 50 μL of supplemented lysis buffer (1×) is added and incubated for at least 30 minutes at room temperature under shaking. After homogenization by pipeting up and down, 16 μL of cell lysate is transferred from the 96-well cell-culture plate to a 384-well small volume white plate. 4 μL of premixed antibody solutions (vol/vol) is prepared in the detection buffer and added. The plate is covered with a plate sealer and incubated overnight at room temperature. The fluorescence emissions at two different wavelengths are read (665 nm and 620 nm) on a Wallac Victor2. Emission ratios are converted into percent inhibitions and imported into GraphPad Prism software. […] IC50 values are determined using a nonlinear regression model available in GraphPad Prism 5.
A general note: TR-FRET usually uses a lanthanide donor and a delayed reading to cut background.

The target in a further test is recombinant MNK2 (Homo sapiens (Human), UniProt Q9HBH9). The test is described as follows: MNK biochemical enzymatic assay (ADP-Glo), MNK2. The following applies: 3 nM MNK2, 10 μM ATP. The procedure:
(§1) Compounds are screened for MNK inhibition using the ADP-Glo kinase assay kit (Promega, catalogue No. V9101). All kinase reactions are performed in Reaction Buffer E (15 mM HEPES pH7.4, 20 mM NaCl, 1 mM EGTA, 10 mM MgCl2, 0.1 mg/ml BGG, and 0.02% Tween-20). Final MNK1 reactions contained 10 nM recombinant MNK1 (Life Technologies, PR9138A), 100 μM MNK substrate peptide Ac-TATKSGSTTKNR-NH2 (American Peptide Company), 300 μM ATP, and varying concentrations of the inhibitory compound of interest. Final MNK2 reactions contained 3 nM recombinant MNK2 (Life Technologies, PV5607), 50 μM MNK substrate peptide Ac-TATKSGSTTKNR-NH2 (American Peptide Company), 10 μM ATP, and varying concentrations of the inhibitory compound of interest. Final DMSO concentration in each reaction is 1%.
(§2) Kinase reactions are carried out in 96-well half-area white flat-bottom polystyrene plates in a final volume of 25 μl. MNK1/2 enzymes are pre-incubated with compound and peptide substrate for 5 minutes prior to the addition of ATP. After the addition of ATP, kinase reactions are incubated at room temperature for 40 minutes. Reactions are subsequently stopped by the addition of 25 μl of ADP-Glo Reagent and incubating for an additional 40 minutes. The final luminescent signal used for kinase activity readout is produced by the addition of 45 μl of Kinase Detection Reagent (ADP-Glo kit, Promega) and incubating for 40 minutes. The luminescent signal is detected using a Victor 2 multilabel counter (Perkin Elmer) and the concentration of compound necessary to achieve inhibition of enzyme activity by 50% (IC50) is calculated using signals from an 8-point compound dilution series.
In general terms: In ADP-Glo the light output rises with the ADP produced.

The next test concerns the target recombinant MNK1 (Homo sapiens (Human), UniProt Q9BUB5). The test is described as follows: MNK biochemical enzymatic assay (ADP-Glo), MNK1. Also on record: key to MNK1 IC50: IC50 values of less than 0.01 μM are labelled as “+++”; from 0.01 to 0.10 μM are labelled as “++”; from 0.1 to 10 μM are labelled as “+”; Inactive: greater than 10 μM are labelled inactive. The conditions noted are these: 10 nM MNK1, 300 μM ATP. As to the method: as §1, §2

Chain of recombinant MNK2 (Q9HBH9 whole entry): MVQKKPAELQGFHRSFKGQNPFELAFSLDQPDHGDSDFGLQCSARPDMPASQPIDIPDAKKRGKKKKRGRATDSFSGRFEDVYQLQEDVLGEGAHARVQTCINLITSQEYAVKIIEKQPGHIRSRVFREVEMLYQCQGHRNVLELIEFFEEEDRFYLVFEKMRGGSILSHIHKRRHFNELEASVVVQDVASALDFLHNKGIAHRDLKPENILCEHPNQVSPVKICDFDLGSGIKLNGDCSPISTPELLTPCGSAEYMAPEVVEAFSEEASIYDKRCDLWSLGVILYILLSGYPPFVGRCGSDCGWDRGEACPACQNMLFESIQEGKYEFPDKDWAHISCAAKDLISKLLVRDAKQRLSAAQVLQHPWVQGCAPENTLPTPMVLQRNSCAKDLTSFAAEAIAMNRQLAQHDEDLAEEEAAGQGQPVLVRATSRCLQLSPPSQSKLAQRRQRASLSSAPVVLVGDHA
Chain of recombinant MNK1 (Q9BUB5 whole entry): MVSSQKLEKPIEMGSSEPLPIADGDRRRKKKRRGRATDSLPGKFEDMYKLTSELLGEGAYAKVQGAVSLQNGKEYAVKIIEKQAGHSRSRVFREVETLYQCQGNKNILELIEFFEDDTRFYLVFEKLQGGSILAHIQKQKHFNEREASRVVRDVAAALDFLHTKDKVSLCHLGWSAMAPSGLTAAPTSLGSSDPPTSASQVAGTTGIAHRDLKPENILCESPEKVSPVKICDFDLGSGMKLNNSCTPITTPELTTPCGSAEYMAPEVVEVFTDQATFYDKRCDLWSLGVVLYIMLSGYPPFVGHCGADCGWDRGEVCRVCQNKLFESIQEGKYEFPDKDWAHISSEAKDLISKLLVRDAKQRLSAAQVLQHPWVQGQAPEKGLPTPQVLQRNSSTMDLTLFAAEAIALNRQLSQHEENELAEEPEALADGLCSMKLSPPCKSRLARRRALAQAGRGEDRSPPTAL

In the case of `Cn1ncc(Nc2cc(Cl)c3n(c2=O)C2(CCCCC2)NC3=O)n1` [compound 7, 8′-chloro-6′-((2-methyl-2H-1,2,3-triazol-4-yl)amino)-2′H-spiro[cyclohexane-1,3′-imidazo[1,5-a]pyridine]-1′,5′-dione], the values for the IC50 in the test on Phosphorylated eIF4E and at recombinant MNK2 were 100 to 100000 nM and under 10 nM, respectively.

Regarding `O=C1NC2(CCCCC2)n2c1c(Cl)cc(Nc1cnns1)c2=O` [compound 3, 6′-((1,2,3-thiadiazol-5-yl)amino)-8′-chloro-2′H-spiro[cyclohexane-1,3′-imidazo[1,5-a]pyridine]-1′,5′-dione], the IC50 in the test with Phosphorylated eIF4E was 100 to 100000 nM; at recombinant MNK2 it was 10 to 100 nM. In addition, at recombinant MNK1, the “MNK1 IC50” value is “Inactive”.

`O=C1NC2(CCCCC2)n2c1c(Cl)cc(Nc1cn[nH]n1)c2=O` [compound 9, 6′-((2H-1,2,3-triazol-4-yl)amino)-8′-chloro-2′H-spiro[cyclohexane-1,3′-imidazo[1,5-a]pyridine]-1′,5′-dione]: the figures for the half-maximal inhibitory concentration (IC50) in the test with Phosphorylated eIF4E, on recombinant MNK1 and on recombinant MNK2 were 100 to 100000 nM, 10 to 100 nM and under 10 nM, respectively.

For the molecule `O=C1NC2(CCCCC2)n2c1c(Cl)cc(Nc1ncncn1)c2=O` [compound 11, 6′-((1,3,5-triazin-2-yl)amino)-8′-chloro-2′H-spiro[cyclohexane-1,3′-imidazo[1,5-a]pyridine]-1′,5′-dione], the IC50 with Phosphorylated eIF4E is 10 to 100 nM; on recombinant MNK2, under 10 nM.

Consider `O=C1NC2(CCCCC2)n2c1c(Cl)cc(Nc1cncs1)c2=O` [compound 5, 8′-chloro-6′-(thiazol-5-ylamino)-2′H-spiro[cyclohexane-1,3′-imidazo[1,5-a]pyridine]-1′,5′-dione], for which the results for the IC50 at recombinant MNK1 and at recombinant MNK2 were 100 to 10000 nM and 10 to 100 nM, respectively.

For the molecule `Nc1cc(Nc2cc(Cl)c3n(c2=O)C2(CCCCC2)NC3=O)ccn1` [compound 13, 6′-((2-aminopyridin-4-yl)amino)-8′-chloro-2′H-spiro[cyclohexane-1,3′-imidazo[1,5-a]pyridine]-1′,5′-dione], the IC50 lay within 100 to 100000 nM with Phosphorylated eIF4E and 10 to 100 nM on recombinant MNK2.

Consider `O=C1NC2(CCCCC2)n2c1c(Cl)cc(Nc1nncs1)c2=O` [1F, 6′-((1,3,4-thiadiazol-2-yl)amino)-8′-chloro-2′H-spiro[cyclohexane-1,3′-imidazo[1,5-a]pyridine]-1′,5′-dione], for which the IC50 in the test with Phosphorylated eIF4E lay in the range of 100 to 100000 nM; at recombinant MNK1 it was 100 to 10000 nM; at recombinant MNK2 it was 10 to 100 nM.

Take `O=C1NC2(CCCCC2)n2c1c(Cl)cc(Nc1cnsn1)c2=O` [compound 6, 6′-((1,2,5-thiadiazol-3-yl)amino)-8′-chloro-2′H-spiro[cyclohexane-1,3′-imidazo[1,5-a]pyridine]-1′,5′-dione]: the IC50 was 100 to 100000 nM in the test on Phosphorylated eIF4E and under 10 nM on recombinant MNK2.

In the case of `O=C1NC2(CCCCC2)n2c1c(Cl)cc(Nc1ncns1)c2=O` [2F, 6′-((1,2,4-thiadiazol-5-yl)amino)-8′-chloro-2′H-spiro[cyclohexane-1,3′-imidazo[1,5-a]pyridine]-1′,5′-dione], the IC50 is 100 to 100000 nM with Phosphorylated eIF4E, 10 to 100 nM at recombinant MNK1 and under 10 nM at recombinant MNK2.

Turning to `O=C1NC2(CCCCC2)n2c1c(Cl)cc(Nc1ncn[nH]1)c2=O` [4F, 6′-((1H-1,2,4-triazol-5-yl)amino)-8′-chloro-2′H-spiro[cyclohexane-1,3′-imidazo[1,5-a]pyridine]-1′,5′-dione], the figures for the half-inhibitory concentration (IC50) on recombinant MNK1 and on recombinant MNK2 were 100 to 10000 nM and 10 to 100 nM, respectively.

For the molecule `O=C1NC2(CCCCC2)n2c1c(Cl)cc(Nc1nnco1)c2=O` [compound 8, 6′-((1,3,4-oxadiazol-2-yl)amino)-8′-chloro-2′H-spiro[cyclohexane-1,3′-imidazo[1,5-a]pyridine]-1′,5′-dione], the IC50 in the test with Phosphorylated eIF4E was 100 to 100000 nM; on recombinant MNK1 it was 100 to 10000 nM; at recombinant MNK2, 100 to 10000 nM.

A word on the IC50: it is the concentration needed to halve the response being measured.

Source of the values: patent US10000487B2, “Heterocyclic compounds that inhibit the kinase activity of Mnk useful for treating various cancers” (eFFECTOR Therapeutics, Inc., priority 2015, dated 2018).
